{"source": "patent US20040019066A1", "about": "“Methionine salvage pathway in bacillus” (priority 2002, published 2004)", "test_system": "B. subtilis 168 and mtn region mutants", "experiment": "Growth on MTR as sole sulfur source (ED1 minimal medium plates)", "assay_type": "cell-based, Bacillus subtilis", "description": "Panel A: ED1 minimal mediums plate with 1 mM IPTG containing 0.2 mM MTR as sole sulfur source WT, metI (BSIP 1143), mtnS (BSHP7010), mtnK (BFS1850), mtnU (BFS1851), mtnV (BSHP7020), mtnW (BSHP7014), mtnX (BFS1852), mtnY (BSHP7016) and mtnZ (BFS 1853) were inoculated for over-night growth at 37° C. No growth of mtnS, mtnK, mtnW and mtnY is represented by an example of absence of growth around a disc with MTR of mtnY mutant in panel B. Normal growth of […] and mtnX is represented by an example of normal growth around a disc with MTR of mtnV mutant in panel C.\nUsing the collection of mutants constructed during the Bacillus subtilis functional analysis, program (http://locus.jouy.inra.fr/cgi-bin/genmic/madbase/progs/madbase.oper] and http://bacillus.genome.adjp, [9]) and constructing mutants which were not available in the collection, we tested all genes in the region for their phenotype of growth on MTR as the sole sulfur source.\nBacterial strains and plasmids, and growth media: E. coli and B. subtilis strains as well as plasmids used in this work are listed in Table 3. E. coli TG1 and XL1-Blue were used for cloning experiments (TG1 for single cross-over recombination and XL1-Blue for double cross-over recombination). Despite the fact that there are no public regulations yet in this domain in China, all experiments were performed in accordance with the European regulation requirements concerning the contained use of Genetically Modified Organisms of Group-I (French agreement N^o 2735). E. coli and B. subtilis were grown in Luria-Bertani (LB) medium and in ED minimal medium: K2HPO4, 8 mM; KH2PO4, 4,4 mM; glucose, 27 mM; Na3-citrate, 0.3 mM; L-glutamine, 15 mM; L-tryptophan, 0.244 mM; ferric citrate, 33.5 μM; MgSO4, 2 mM; MgCl2, 0.61 mM; CaCl2, 49.5 μM; FeCl3, 49.9 μM; MnCl2, 5.05 μM; ZnCl2, 12.4 μM; CuCl2, 2.52 μM; CoCl2, 2.5 μM; Na2MoO4, 2.48 μM. When methionine was used as sulfur source (1 mM), MgSO4 was replaced by MgCl2 at the same magnesium concentration (2 mM). For assaying growth on plates, either the MgSO4 containing medium or the sulfur-free basal medium was used (MgSO4 was replaced by MgCl2 as described above). In the latter case, 10 [μl of the sulfur source under investigation was applicated onto paper discs (MTR, 200 mM stock solution and methionine, 100 mM stock solution) deposited at the center of the plate, after bacteria had been uniformly spread at the surface of the plate, and growth was measured around the disK. In some cases MTR was used directly in the plate as sulfur source (0.2 mM). When necessary IPTG was included at 1 mM concentration. When xylose was added to the medium (0.5%) in order to trigger the expression of genes under the control of Pxyl inducible promoter, fructose was used as carbon source instead of glucose. LB and ED plates were prepared by addition of 17 g/liter Bacto agar or Agar Noble (Difco), respectively, to the medium. When included, antibiotics were added to the following concentrations: ampicillin, 100 mg/liter; chloramphenicol, 50 mg/liter; spectinomycin, 100 mg/liter; erythromycin plus lincomycin, 1 mg/liter and 25 mg/liter. Bacteria were grown at 37° C. The optical density (OD) of bacterial cultures was measured at 600 nm. MTR was prepared from MTA (Sigma, D5011) by acid hydrolysis as described by Schlenk. 3-fluoromethythiorybose (3F-MM, 5-thio-5-5-S-trifluoromethyl-D-ribose) was synthesised accordingly to [6, 20]. When added directly to the ED1 medium plate, 3F-MTR was used at 100 mg/liter concentration and when applicated onto paper discs 100 mM stock solution was used. For anaerobic growth on plates, the Anaerocult A (Merck) within an anaerobiosis jar for CO2 production with simultanious O2 absorbtion was used. Sulfur-free ED1 minimal medium plates were supplemented to 1% glucose final concentration and with 0.5% sodium pyruvate and 20 mM sodium nitrate as electron acceptor. Plates were incubated at 37° C. for 4 days with the sulfur source under investigation.", "note": "Entries after “also recorded” stand apart in the source; their conditions may differ.", "data": [{"compound": "CSC[C@@H](O)[C@@H](O)[C@@H](O)C=O", "note": "[MTR, methylthioribose]", "values": [{"measurement": "Growth on MTR as sole sulfur source", "setting": "Wild type strain 168, + O2, four days", "value": "normal growth after four days"}, {"measurement": "Growth on MTR as sole sulfur source", "setting": "Wild type strain 168, anaerobic growth, nitrate as electron acceptor, four days (table row printed '+ O2')", "value": "failed to grow; also recorded: no growth after four days"}, {"measurement": "Use of MTR as the methionine source", "setting": "methionine auxotrophs", "value": "can be used as the methionine source"}, {"measurement": "Growth on MTR as sole sulfur source", "setting": "mtnK mutant, strain BFS1850", "value": "no growth; also recorded: failed to grow"}, {"measurement": "Growth on MTR as sole sulfur source", "setting": "mtnS mutant, strain BSHP7010", "value": "no growth; also recorded: failed to grow"}, {"measurement": "Growth on MTR as sole sulfur source", "setting": "mtnU mutant, strain BFS1851", "value": "failed to grow; also recorded: no growth (numerous revertants)"}, {"measurement": "Growth on MTR as sole sulfur source", "setting": "mtnV mutant, strain BSHP7020", "value": "normal growth; also recorded: no visible effect on growth"}, {"measurement": "Growth on MTR", "setting": "mtnW inactivated with a polar effect on the distal genes", "value": "lack of growth"}, {"measurement": "Growth on MTR as sole sulfur source", "setting": "mtnW mutant, strain BSHP7014 (downstream genes expressed)", "value": "no growth; also recorded: failed to grow"}, {"measurement": "Growth on MTR as sole sulfur source", "setting": "mtnX mutant, strain BFS1852, IPTG added", "value": "normal growth; also recorded: recovered its growth properties"}, {"measurement": "Growth on MTR as sole sulfur source", "setting": "mtnY mutant, strain BSHP7016", "value": "no growth; also recorded: failed to grow"}, {"measurement": "Growth on MTR as sole sulfur source", "setting": "mtnZ mutant, strain BFS1853", "value": "partial growth; also recorded: very weak (residual) growth; also recorded: very weak, residual growth; also recorded: weak residual growth"}]}]}
